From ChEMBL document CHEMBL1153574, “Novel topoisomerase I-targeting antitumor agents synthesized from the N,N,N-trimethylammonium derivative of ARC-111, 5H-2,3-dimethoxy-8,9-methylenedioxy-5-[(2-N,N,N-trimethylammonium)ethyl]dibenzo[c,h][1,6]naphthyridin-6-one iodide” (Eur J Med Chem, 2009) come the findings set out here.

Each structure is given as a SMILES string.

The nature of assay [1]: Cytotoxicity against human RPMI8402 cells after 4 days by MTT assay. The format is functional, cell-based. The conditions noted are these: RPMI 8402, 96 h. A general note: Tetrazolium assays rely on reduction of a dye to a coloured formazan, in cell work by metabolically active cells.
A short description of assay [2]: Cytotoxicity against human CPT-K5 cells after 4 days by MTT assay. It counts as functional, cell-based. Conditions: CPT-K5, 96 h.
A short description of assay [3]: Cytotoxicity against multidrug resistant human KBV1 cells overexpressing MDR1 after 4 days by MTT assay. It counts as functional, cell-based. The conditions noted are these: KB-V1, 96 h.
In assay [4] the target is T1, DNA topoisomerase 1 (Homo sapiens) (UniProt P11387).
T1 sequence (whole entry): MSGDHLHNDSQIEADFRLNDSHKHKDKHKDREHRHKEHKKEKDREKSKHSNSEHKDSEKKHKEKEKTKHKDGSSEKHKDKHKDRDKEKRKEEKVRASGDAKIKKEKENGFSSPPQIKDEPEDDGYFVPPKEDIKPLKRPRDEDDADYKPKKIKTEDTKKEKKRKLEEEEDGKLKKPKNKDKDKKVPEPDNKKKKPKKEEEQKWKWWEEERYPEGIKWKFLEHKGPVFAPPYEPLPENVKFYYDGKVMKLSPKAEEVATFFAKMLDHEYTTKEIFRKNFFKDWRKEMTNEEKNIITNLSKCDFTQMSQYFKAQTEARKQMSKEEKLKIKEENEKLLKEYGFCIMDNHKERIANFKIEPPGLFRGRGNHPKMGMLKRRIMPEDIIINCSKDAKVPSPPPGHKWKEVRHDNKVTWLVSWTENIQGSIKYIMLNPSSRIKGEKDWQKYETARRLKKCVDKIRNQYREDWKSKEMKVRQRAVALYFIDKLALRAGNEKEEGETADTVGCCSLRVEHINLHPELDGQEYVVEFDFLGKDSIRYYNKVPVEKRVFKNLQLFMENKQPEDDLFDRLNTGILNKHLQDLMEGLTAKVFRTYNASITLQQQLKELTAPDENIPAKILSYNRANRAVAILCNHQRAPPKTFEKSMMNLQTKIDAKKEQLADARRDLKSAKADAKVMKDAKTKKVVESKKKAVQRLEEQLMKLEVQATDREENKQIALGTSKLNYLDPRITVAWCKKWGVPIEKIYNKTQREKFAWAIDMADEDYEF
Briefly: Effect on human topoisomerase 1 expressed in Sf9 insect cells assessed as effective concentration required for 10% cleavage of plasmid DNA relative to topotecan.

A short description of assay [5]: Cytotoxicity against human KB3-1 cells after 4 days after MTT assay. The conditions noted are these: KB 3-1, 96 h. It counts as functional, cell-based.
Assay [6] is described as follows: Cytotoxicity against mouse P388/CPT45 cells after 4 days by MTT assay. The format is functional, cell-based. The conditions noted are these: P388CPT45, 96 h.
Assay [7] is described as follows: Cytotoxicity against multidrug resistant human KBH5.0 cells overexpressing BCRP after 4 days by MTT assay. It counts as functional, cell-based. The conditions noted are these: KBH5.0 cell, 96 h.
Assay [8] relates to P388. Briefly: Cytotoxicity against mouse P388 cells after 4 days by MTT assay. It counts as functional, cell-based. The conditions noted are these: P388, 96 h.

What is called IC50 is the concentration needed to halve the response being measured. A higher IC50 goes with weaker potency in that assay. For `COc1cc2c(=O)n(CCN(C)CCN(C)C)c3c4cc5c(cc4ncc3c2cc1OC)OCO5`, the IC50 in assay [1] was found to be 0.045 µM; in assay [2], 2.2 µM; in assay [3] it was 0.6 µM; in assay [5] it was 0.05 µM; in assay [6], 0.07 µM; in assay [7], 0.21 µM. Also, in assay [8], inhibition was half-maximal at 0.035 µM (IC50). Also, the Activity in assay [4] worked out at 0.7.

`COc1cc2c(=O)n(CCNC(CO)CO)c3c4cc5c(cc4ncc3c2cc1OC)OCO5`: the half-inhibitory concentration (IC50) in assay [1] is 0.054 µM; in assay [2], > 10 µM; in assay [3], 2 µM; in assay [5], 0.026 µM; in assay [7], 0.75 µM; in assay [8], 0.08 µM. Moreover, the Activity in assay [4] was found to be 0.2.

`COc1cc2c(=O)n(CCN(CCO)CCO)c3c4cc5c(cc4ncc3c2cc1OC)OCO5`: the IC50 was found to be 0.04 µM in assay [1]; 0.32 µM in assay [2]; 0.35 µM in assay [3]; 0.023 µM in assay [5]; 0.25 µM in assay [6]; 0.28 µM in assay [7]. In assay [8], this molecule registered a half-maximal inhibitory concentration (IC50) of 0.03 µM. Further, in assay [4], the Activity was found to be 0.48.

Consider `CC[C@@]1(O)C(=O)OCc2c1cc1n(c2=O)Cc2cc3ccccc3nc2-1`, for which, in assay [4], the Activity amounted to 0.2.

For `COc1cc2c(=O)n(CCn3ccnc3)c3c4cc5c(cc4ncc3c2cc1OC)OCO5`, the 50% inhibitory concentration (IC50) in assay [1] was 0.21 µM; in assay [2], > 10 µM; in assay [3], 1.8 µM; in assay [5], 0.15 µM; in assay [6], > 10 µM; in assay [7], 0.58 µM. In addition, the IC50 in assay [8] worked out at 0.2 µM. Moreover, the Activity in assay [4] came to 2.3.

Turning to `COc1cc2c(=O)n(CCn3ccnn3)c3c4cc5c(cc4ncc3c2cc1OC)OCO5`, the IC50 in assay [1] was 3.5 µM; in assay [2], > 10 µM; in assay [3] it was 10 µM; in assay [5] it was 0.7 µM; in assay [6], > 10 µM; in assay [7], 6 µM. In assay [8], this molecule yielded a half-maximal inhibitory concentration (IC50) of 4.4 µM. In addition, in assay [4], the Activity is > 10.

For the molecule `CCN(CC)CCNCCn1c(=O)c2cc(OC)c(OC)cc2c2cnc3cc4c(cc3c21)OCO4`, the concentration for half-maximal inhibition (IC50) in assay [1] worked out at 0.15 µM; in assay [2], 9 µM; in assay [3], 1.2 µM; in assay [5], 0.04 µM; in assay [6] it was 0.35 µM; in assay [7], 0.3 µM. In assay [8], the half-inhibitory concentration (IC50) was determined as 0.23 µM. For the same molecule, the Activity in assay [4] amounted to 5.2.

For the molecule `COc1cc2c(=O)n(CCN(C)C)c3c4cc5c(cc4ncc3c2cc1OC)OCO5`, the IC50 in assay [3] and in assay [5] was 0.005 µM in each case. The Activity in assay [4] worked out at 0.3.

As to `COc1cc2c(=O)n(CCNC3CC3)c3c4cc5c(cc4ncc3c2cc1OC)OCO5`, the IC50 turned out to be 0.01 µM in assay [1]; 0.3 µM in assay [2]; 0.04 µM in assay [3]; 0.004 µM in assay [5]; 0.11 µM in assay [6]; 0.008 µM in assay [7]. The molecule further returned an IC50 in assay [8] of 0.009 µM. Besides, the Activity in assay [4] was found to be 0.3.

For the molecule `COc1cc2c(=O)n(CCO)c3c4cc5c(cc4ncc3c2cc1OC)OCO5`, the IC50 was 0.03 µM in assay [1]; > 10 µM in assay [2]; 0.04 µM in assay [3]; 0.027 µM in assay [5]; 0.9 µM in assay [6]; 0.04 µM in assay [7]. The molecule also displayed an IC50 in assay [8] of 0.03 µM. In addition, the Activity in assay [4] amounted to 4.7.

On to `COc1cc2c(=O)n(CCNCCN(C)C)c3c4cc5c(cc4ncc3c2cc1OC)OCO5`, for which the IC50 was found to be 0.14 µM in assay [1]; 2.6 µM in assay [2]; 3.4 µM in assay [3]; 0.06 µM in assay [5]; 0.34 µM in assay [6]; 0.75 µM in assay [7]. Moreover, the half-maximal inhibitory concentration (IC50) in assay [8] worked out at 0.075 µM. Further, the Activity in assay [4] turned out to be 6.4.

Consider `COc1cc2c(=O)n(CCN(C)CCO)c3c4cc5c(cc4ncc3c2cc1OC)OCO5`, for which the concentration for half-maximal inhibition (IC50) in assay [1] was 0.015 µM; in assay [2] it was 0.58 µM; in assay [3] it was 0.06 µM; in assay [5] it was 0.006 µM; in assay [6], 0.33 µM; in assay [7] it was 0.05 µM. This molecule also yielded an IC50 in assay [8] of 0.012 µM. Moreover, the Activity in assay [4] came to 0.04.

For `COc1cc2c(=O)n(CCOC(=O)CN(C)C)c3c4cc5c(cc4ncc3c2cc1OC)OCO5`, the IC50 in assay [1] stood at 0.03 µM; in assay [2] it was 4.6 µM; in assay [3], 0.035 µM; in assay [5], 0.032 µM; in assay [6], 0.39 µM; in assay [7], 0.05 µM. In assay [8], this molecule registered a half-inhibitory concentration (IC50) of 0.027 µM. Moreover, the Activity in assay [4] came to 0.3.

For `COc1cc2c(=O)n(CCNC(CO)(CO)CO)c3c4cc5c(cc4ncc3c2cc1OC)OCO5`, the IC50 in assay [1] amounted to 0.33 µM; in assay [2] it was 7 µM; in assay [3], 1.8 µM; in assay [5], 0.25 µM; in assay [6], 3.5 µM; in assay [7], 1.8 µM. The molecule further displayed a half-maximal inhibitory concentration (IC50) in assay [8] of 0.33 µM. Besides, the Activity in assay [4] was determined as 2.
